Consider two compounds from patent US9839640B2, “Methods of treating eye diseases associated with inflammation and vascular proliferation” (OccuRx Pty Ltd, priority 2010, dated 2017).

What all share (assay type): in vivo, rat
Experiment [1] can be described thus: Animal characteristics (8 weeks study), STZ diabetic (mRen-2) 27 rats treated with FT011. The following applies: FT011 200 mg/kg/day (100 mg/kg bid gavage), P < 0.05 versus untreated diabetes. The procedure:
(§1) Ninety, six-week old female, heterozygous (mRen-2) 27 rats (St. Vincent's Hospital Animal House, Melbourne, Australia) were assigned to receive either 55 mg/kg of streptozotocin (STZ) (Sigma, St. Louis, USA) diluted in 0.1 M citrate buffer, pH 4.5 or citrate buffer alone (non-diabetic control) by tail vein injection following an overnight fast. In short term study, rats were randomly assigned to receive (n=10/group) treatment with either FT011 (100 mg/kg bid gavage) or vehicle for 8 weeks. Non-diabetic animals (n=10) served as controls. In the long term study, at 16 weeks of STZ diabetes rats were randomly assigned to either treatment (n=15/group) with, FT011 (50 mg/kg/day BID), FT011 (100 mg/kg BID) or no treatment for a further 16 weeks. Non-diabetic animals (n=15) served as controls. Each week, rats were weighed and their blood glucose levels were measured (Accu-check Advantage II Blood Glucose Monitor, Roche Diagnostics, USA) and only STZ-treated animals with blood glucose >15 mmol/L were considered diabetic. Every 4 weeks, SBP was determined in preheated conscious rats via tail-cuff plethysmography using a non-invasive blood pressure (NIBP) controller and Powerlab (AD instruments, NSW, Australia). Haemoglobin A1c (HbA1c) was measured by HPLC at the end of the study in the Department of Pathology, St Vincent's Hospital. […]

Experiment [2] can be described thus: Animal characteristics (32 weeks study), STZ diabetic (mRen-2) 27 rats treated with FT011. The procedure: as §1
Experiment [3] concerns leukocytes in the retina. Kind of experiment: Leukostasis (short term study), rhodamine-coupled Concanavalin A staining of retina. The procedure:
as §1

For experiment [4], the system named is ICAM-1 mRNA. Kind of experiment: Real time PCR of retinal ICAM-1 mRNA (short term study). The following applies: FIG. 3; diabetic rats treated with FT011, short term 8 week study; normalised to 18S rRNA. As to the method: as §1
Another experiment has as its system acellular capillaries. Kind of experiment: Trypsin digest, acellular capillaries in PAS stained retina (long term study 32 weeks). The following applies: diabetic rats, 100 mg/kg/day FT011, long term study. As to the method:
as §1

Experiment [5] relates to leukocytes in the retina. Kind of experiment: Leukostasis, rhodamine-coupled Concanavalin A staining of retina (FT061 study). As to the method: (§2) Sixty, six-week old female, heterozygous (mRen-2) 27 rats (St. Vincent's Hospital Animal House, Melbourne, Australia) were assigned to receive either 55 mg/kg of streptozotocin (STZ) (Sigma, St. Louis, USA) diluted in 0.1 M citrate buffer, pH 4.5 or citrate buffer alone (non-diabetic control) by tail vein injection following an overnight fast. Rats were randomly assigned to receive (n=15/group) treatment with either FT061 (100 mg/kg/day gavage) or vehicle for 8 weeks. Non-diabetic animals (n=15) served as controls. Each week, rats were weighed and their blood glucose levels were measured (Accu-check Advantage II Blood Glucose Monitor, Roche Diagnostics, USA) and only STZ-treated animals with blood glucose >15 mmol/L were considered diabetic. Every 4 weeks, SBP was determined in preheated conscious rats via tail-cuff plethysmography using a non-invasive blood pressure (NIBP) controller and Powerlab (AD instruments, NSW, Australia). Diabetic rats received a daily injection of insulin (2-4 units intraperitoneally; Humulin NPH, Eli Lilly and Co., Indianapolis, Ind.) to reduce mortality and to promote weight gain.
At the end of the study, rats were anaesthetized with Lethobarb (60 mg/kg) and the chest cavity was opened. […] The total number of leukocytes was counted per retina. […]

The subject of experiment [6] is ICAM-1 mRNA. Kind of experiment: Real time PCR of retinal ICAM-1 mRNA (FT061 study). The following applies: FIG. 8; diabetic rats, FT061 100 mg/kg/day 8 weeks, compared to controls and untreated diabetes. As to the method:
as §2, with “Diabetic rats received a daily injection of insulin (2-4 units intraperitoneally; Humulin NPH, Eli Lilly and Co., Indianapolis, Ind.) to reduce mortality and to promote weight gain.” left out
(§3) At the end of the study, rats were anaesthetized with lethobarb (60 mg/kg), eyes were enucleated and retinae dissected and placed in RNAlater (#R0901, Sigma-Aldrich). […] RNA concentration was determined on a Nanodrop 3.1.2, after which 1 μg of RNA was DNase treated (DNA-free kit, Ambion) and reverse transcribed (First Strand cDNA Synthesis Kit for RT-PCR, Roche). […]
A general note: In qPCR the cycle at which signal appears reflects the starting amount.

A further experiment relates to VEGF mRNA. In words: Real time PCR of retinal VEGF mRNA (FT061 study). The following applies: FIG. 9; diabetic rats, FT061 100 mg/kg/day 8 weeks, compared to controls and untreated diabetes. The procedure: as §2, with “Diabetic rats received a daily injection of insulin (2-4 units intraperitoneally; Humulin NPH, Eli Lilly and Co., Indianapolis, Ind.) to reduce mortality and to promote weight gain.” left out
as §3

For the compound `C#CCOc1ccc(/C=C/C(=O)Nc2ccccc2C(=O)O)cc1OC` [FT011], the HbA1C in experiment [1] amounted to 8.9 ± 0.50 %; in experiment [2] (FT011 100 mk/kg/day, P < 0.05 versus control), 7.65 ± 0.25 %; in experiment [2] (FT011 200 mk/kg/day, P < 0.05 versus untreated diabetes), 6.58 ± 0.37 %. The “total number of leukocytes in the retina” value with leukocytes in the retina [3] (FIG. 1, diabetic rats, FT011 100 mg/kg bid gavage 8 weeks, compared to untreated diabetic rats) is on record as “significantly less”. In addition, the “leukostasis (representative micrographs)” value with leukocytes in the retina [3] (FIG. 2, diabetic rats treated with FT011, short term study) is recorded as “significantly reduced leukostasis”. For the same compound, the “retinal ICAM-1 mRNA levels” value in the experiment with ICAM-1 mRNA [4] was “reduction in ICAM-1 mRNA levels”. Further, the “number of acellular capillaries per field” value in the experiment with acellular capillaries (FIG. 4, compared to untreated diabetic rats) is reported as “less acellular capillaries”. In addition, the “acellular capillaries (pericyte ghost), representative micrographs” value with acellular capillaries (FIG. 5) is given as “pericyte ghosts were not apparent”.

As for `O=C(/C=C/c1ccc(OC(F)F)c(OC(F)F)c1)Nc1ccccc1C(=O)O` [FT061], the “total number of leukocytes in the retina” value in the experiment on leukocytes in the retina [5] (FIG. 6, diabetic rats, FT061 100 mg/kg/day gavage 8 weeks, compared to untreated diabetic rats) was “significantly less”. The “leukostasis (representative photomicrographs)” value in the experiment with leukocytes in the retina [5] (FIG. 7, diabetic rats treated with FT061) was “significantly reduced leukostasis”. Besides, the “retinal ICAM-1 mRNA levels” value in the experiment with ICAM-1 mRNA [6] was “reduction in ICAM-1 mRNA levels”. Moreover, in the experiment on VEGF mRNA, the “retinal VEGF mRNA levels” value was “reduction in VEGF mRNA levels”.
